Holding throughout (assay type): in vivo
One data set has as its system cats. Description: amphetamine-like stereotyped reactions in cats (amphetamine-like CNS stimulant activity). Conditions: for amphetamine-like stereotyped reactions: cats, comparative tests at similar dosage levels.
The next data set has as its system rabbits. The data set is described as follows: teratogenicity in rabbits. Conditions: similar dosage levels.
A further data set relates to rats. The data set is described as follows: teratogenicity in rats. Conditions: similar dosage levels.
The subject of data set [1] is reserpine-induced hypothermia. Description: reversal of reserpine-induced hypothermia test in mice (antireserpine activity). To be noted: Mus musculus, Shadbolt et al., read-out: ED50 (median effective dose). How it is done: A test to evaluate this property was carried out with the compounds of formula I (R = H or CH3 O). The test was carried out in mice as described by Shadbolt et al. in J. Med. Chem. vol. 14 p.837 (1971), and the following results were obtained.

These results are taken from patent US3957999A, “Anilinobenzothiazoles as antidepressants” (The Boots Company, priority 1974, dated 1976).

Structures are written as SMILES.

For the compound `CCN(CC)CCOc1ccc(Nc2nc3ccccc3s2)cc1` [2-[4-(2-diethylaminoethoxy)anilino]benzothiazole], the “amphetamine-like CNS stimulant activity” value in the data set with cats (as shown by stereotyped reactions in cats) is on record as “undesirably high level of amphetamine-like CNS stimulant activity”. Moreover, in the data set with cats, the amphetamine-like stereotyped reactions entry is “produces amphetaminelike stereotyped reactions”.
For `c1ccc2sc(Nc3ccc(OCCN4CCCCC4)cc3)nc2c1` [2-[4-(2-piperidin-1-ylethoxy)anilino]benzothiazole], the amphetamine-like stereotyped reactions result in the data set on cats is listed as “causes amphetamine-like stereotyped reactions”.
With `c1ccc2oc(Nc3ccc(OCCN4CCCC4)cc3)nc2c1` [2-[4-(2-pyrrolidin-1-ylethoxy)anilino]benzoxazole], the teratogenicity result with rabbits and with rats was “markedly teratogenic” in each case.
As to `c1ccc2sc(Nc3ccc(OCCN4CCCC4)cc3)nc2c1` [compound I, R=hydrogen, 2-[4-(2-pyrrolidin-1-ylethoxy)anilino]benzothiazole], in data set [1], the ED50 (usually the midpoint of the dose-response relation) worked out at 3.7 mg/kg. Moreover, the teratogenicity result in the data set on rats is given as “no evidence of teratogenicity”.
As to `COc1ccc2sc(Nc3ccc(OCCN4CCCC4)cc3)nc2c1` [compound I, R=methoxy, 5-methoxy-2-[4-(2-pyrrolidin-1-ylethoxy)anilino]benzothiazole], the ED50 in data set [1] worked out at 3.1 mg/kg. Moreover, the teratogenicity result with rabbits and in the data set with rats was “no evidence of teratogenicity” throughout.
